Experiments:
[1] = system: 67 molecular targets including G-protein coupled receptors, ion channel-coupled receptors, transporters, ion channels and enzymes; assay: In vitro safety evaluation, whole panel; details: andrographolide at a concentration of 25 μM in the herbal composition
Experimental: To confirm possible adverse effects, extensive in vitro studies covering a broad range of physical function-related 67 molecular targets including G-protein coupled receptors, ion channel-coupled receptors, transporters, ion channels and enzymes, were conducted. […] Interactions found in the primary assay can be indicative of in vivo side effects or safety.

[2] = system: phytohemagglutinin (PHA)-stimulated whole blood cell; details: cultivated; cited from earlier work

## C=C1CC[C@@H]2[C@](C)(CO)[C@H](O)CC[C@@]2(C)[C@@H]1C/C=C1/C(=O)OC[C@H]1O [andrographolide]
[1]
  side-effect in the in vitro safety evaluation: no significant side-effect
[2]
  formation of TNFα and β2MG: increase

Reference: patent US20060263449A1 (Advanced Gene Technology, Corp., priority 2005, published 2006)
